This is an account of results in patent publication US20090253629A1 (priority 2008, published 2009).

The structures appear in SMILES notation. ≈ marks a conversion by molar mass, not a printed value. Where “and” joins values, the source holds several entries; their conditions need not be identical. Equal values may be shown once. Read-outs that look alike come from different tables or passages of the source.

Assay [1] has as its system penicillin-resistant serotype 9V Streptococcus pneumoniae (1395). Type of assay: in vivo, New Zealand white rabbits. The conditions noted are these: for reduction in bacterial burden in the cerebrospinal fluid (Δ log CFU), Average / reduction in bacterial burden in the cerebrospinal fluid (Δ log CFU): Ceftriaxon treatment; for reduction in bacterial burden in the cerebrospinal fluid (Δ log CFU), Average: average of rabbits 7-10; for reduction in bacterial burden in the cerebrospinal fluid (Δ log CFU): individual rabbits 7-10. The source says:
(§1) An Isolate of a penicillin-resistant serotype 9V Streptococcus pneumoniae (1395), originally isolated from the CSF of a person with meningitis, was used in the meningitis model. This strain was formerly used for evaluating the effectiveness of treatment of meningitis with Moxifloxacin (see Ostergaard et al., 1998, “Evaluation of moxifloxacin, a new 8-methoxyquinolone, for treatment of meningitis caused by a penicillin-resistant pneumococcus in rabbits”, Antimicrob Agents Chemother 42(7): 1706-1712).
The virulence of the strain was enhanced by passing the bacteria through a mouse peritonitis model. Bacteria from sampled peritoneal fluid were grown on blood agar plates, recovered and diluted in beef-broth with 10% glycerol added and frozen at −80° C.
The bacterial aliquots were thawn and grown on blood-agar plates, suspended in sterile beef-broth to reach an optical density of 3.5 at 540 nm, and subsequently diluted to obtain a final concentration of 1-2×10^6 CFU/ml.
Male New Zealand white rabbits weighing approx. 2500 g was used for the experiments. The rabbits arrived at the facilities 1-2 weeks prior to the experiment to allow for adaptation. They were kept in single cages covered with hay and offered food and water with no restrictions. Veterinarian expertise was available at the laboratory, and the experimental design was approved by the local animal legislation committee.
The rabbit was weighed and anaesthetized with dormicum 0.5 ml/kg (midazolam 5 mg/ml) s.c. and after 10 minutes with hypnorm 0.35 ml/kg (fentanylcitrat+fluanison) i.m.
The ears, scalp and neck of the rabbit were shaved and the skin disinfected. An incision measuring approx. 2 cm was made on the forehead of the rabbit and the scalp was exposed by blunt dissection. 4 bore holes were made demarcating a square and 4 screws were screwed up at right angles to the surface (2.5 to 3 turns). An acrylic helmet, embedding a turnbuckle, was moulded from dental casting material directly onto the scalp of the rabbit and the helmet was cooled under running water. The rabbit was put back into its cage with free access to food and water to rest for 8-10 hours until the time of bacterial inoculation or start of pharmacokinetic treatment study on uninfected rabbits. Analgesia with buprenorfin, 0.1 mg/kg, was given.
The head of the rabbit was immobilised in a stereotactic frame and a spinal canula was introduced in cisterna magna for the inoculation of 1×10^5 CFU pneumococci. After the bacterial inoculation, the rabbit was put back into its cage with access to food and water for another 8 hours.
The rabbit was re-anaesthetized with urethan 3.5 ml/kg ([…] 50%, 1.75 g/kg) s.c. at 7.30 a.m. A venous catheter was applied in the left ear-vein and Mebumal approx. 0.5-1 ml (Pentobarbital 50 mg/ml) i.v. was infused slowly until the rabbit was asleep and deeply anaesthetized. A three-way tap was connected to the venous catheter and syringes containing pentobarbital for supplemental anaesthetics and isotonic NaCl and heparin 1 Ul/ml for flushing were connected to the tap. Rabbits were observed every half hour. When the need for supplemental anaesthesia arose, additional 0.2 ml Mebumal (Pentobarbital 50 mg/ml) was given. During the experiment observations and anaesthetics were recorded in the scheme of the laboratory animal-department and in the book of the Laboratory Animal Inspection.
An arterial canula was applied in the artery of the right ear and used for blood-sampling throughout the experiment. A bolt was fastened to the turnbuckle embedded in the acrylic helmet, and the rabbit's head was fixed in a stereotactic frame. The rabbit remained fixed throughout the experiment.
Cisterna magna was punctured with a spinal-canula, fastened to the stereotactic frame. The canula was left in place throughout the experiment and used for CSF-sampling.

In assay [2] the test system is Streptococcus pneumoniae (1395). The assay can be described thus: Minimum inhibitory concentration (MIC) against Streptococcus pneumoniae (1395). The conditions noted are these: penicillin-resistant serotype 9V, read-out: minimium inhibitory concentration (MIC). Type of assay: cell-based.
Source text: as §1
The synthetic defensin used in the experiment is a polypeptide having the amino acid sequence shown in SEQ ID NO: 1.

Setting [3] is: time 0 hours (normalized start).

As for `CO/N=C(\C(=O)N[C@@H]1C(=O)N2C(C(=O)O)=C(CSc3nc(=O)c(=O)[nH]n3C)CS[C@H]12)c1csc(N)n1` [Ceftriaxone], the “reduction in bacterial burden in the cerebrospinal fluid (Δ log CFU), Average” value in assay [1] (setting [3]) is recorded as 0.00 Δ log CFU; in assay [1] (time 3 hours), −2.12 Δ log CFU; in assay [1] (time 5 hours), −2.98 Δ log CFU; in assay [1] (time 10 hours), −4.18 Δ log CFU. The “reduction in bacterial burden in the cerebrospinal fluid (Δ log CFU)” value in assay [1] (setting [3]) was 0.00 Δ log CFU; in assay [1] (time 3 hours) it was −2.26 Δ log CFU and −2.11 Δ log CFU and −2.53 Δ log CFU and −1.58 Δ log CFU; in assay [1] (time 5 hours), −3.28 Δ log CFU and −2.77 Δ log CFU and −3.72 Δ log CFU and −2.14 Δ log CFU; in assay [1] (time 10 hours), −5.16 Δ log CFU and −3.57 Δ log CFU and −4.32 Δ log CFU and −3.67 Δ log CFU. The “bacterial burden in the cerebrospinal fluid” value is reported as 3,480,000 CFU/ml in assay [1] (time 0 hours (start of treatment), Ceftriaxone 125 mg/kg at 0 h); 92,500 CFU/ml in assay [1] (time 3 hours, Ceftriaxone 125 mg/kg at 0 h); 25,000 CFU/ml in assay [1] (time 5 hours, Ceftriaxone 125 mg/kg at 0 h); 750 CFU/ml in assay [1] (time 10 hours, Ceftriaxone 125 mg/kg at 0 h); 240,000 CFU/ml in assay [1] (time −10 hours (before treatment), Ceftriaxone group). For the same compound, the MIC in assay [2] was 0.5 mg/L (≈ 0.902 µM).
